This is an account of results in PubChem BioAssay AID2393 (NMMLSC, 2010).

The source made the active and inactive calls.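 How the source made its calls: active means none, because compounds meeting the potency rule were filed inconclusive for hitting several proteins; inconclusive means EC50 under 20 µM with over 15% binding change; inactive means the rest.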

As usually defined, the EC50 is the concentration at which the effect is half-maximal.

Holding throughout (experiment): small GTPase panel, fluorescent GTP binding blockade – biochemical, Mg buffer, constant GTP, RhoA, Rac1, Cdc42, mechanism study for Ras-family GTPase inhibitor project, profiling panel (AID 2393);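 on EC50: EC50 marks half change in GTP binding and may reflect gain or loss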
Holding throughout (conditions): GST-GTPase beads, BODIPY-GTP binding, flow cytometry; for GTP binding remaining (% of DMSO): at 100 µM (top of the series)
On the technique in general: Flow cytometry measures light scatter and fluorescence of single cells or particles in a stream.

For test [1], the target named is Ras-related C3 botulinum toxin substrate 1 (Homo sapiens) (UniProt P63000).
In test [2] the target is Cell division control protein 42 homolog (Homo sapiens) (UniProt P60953).
In test [3] the target is Transforming protein RhoA (Homo sapiens) (UniProt P61586).

Consider `COc1ccc(C2=NN(c3ccc(S(N)(=O)=O)cc3)C(c3ccc(OC)cc3)C2)cc1` (stereo not drawn), for which the “GTP binding remaining (% of DMSO)” value in test [1] (Rac1ACT), in test [1] (Rac1WT), in test [2] (Cdc42WT), in test [3] (RhoACT) and in test [3] (RhoWT) was “inactive” each time. The EC50 result in test [2] (Cdc42ACT) was “inactive”.
Regarding `COc1ccc(-c2noc(CCC(=O)N3CCC(c4cc(C)ccc4C)CC3)n2)cc1`, the “GTP binding remaining (% of DMSO)” value in test [1] (Rac1ACT), in test [2] (Cdc42ACT), in test [2] (Cdc42WT) and in test [3] (RhoACT) was “inactive” in each case. The EC50 in test [1] (Rac1WT) was 11.9 µM. In addition, the EC50 entry in test [3] (RhoWT) is “inactive”.
With `COc1ccc(-c2cc(CCC(=O)N3CCN(c4cc(C)ccc4C)CC3)[nH]n2)cc1`, the “GTP binding remaining (% of DMSO)” value in test [1] (Rac1ACT), in test [1] (Rac1WT), in test [2] (Cdc42ACT), in test [2] (Cdc42WT), in test [3] (RhoACT) and in test [3] (RhoWT) was “inactive” in each case.
Regarding `COc1ccc(C2CC(c3cccc(OC)c3)=NN2c2ccc(S(N)(=O)=O)cc2)cc1` (stereo not drawn), the “GTP binding remaining (% of DMSO)” value in test [1] (Rac1ACT), in test [1] (Rac1WT), in test [3] (RhoACT) and in test [3] (RhoWT) was “inactive” each time. In addition, the EC50 entry in test [2] (Cdc42ACT) was “inactive”. Moreover, the EC50 in test [2] (Cdc42WT) was 1.9 µM.
For the molecule `NS(=O)(=O)c1ccc(N2N=C(c3ccccc3)CC2c2ccc(Br)cc2)cc1` (stereo not drawn), the “GTP binding remaining (% of DMSO)” value in test [1] (Rac1ACT), in test [3] (RhoACT) and in test [3] (RhoWT) was “inactive” each time. For the same molecule, the EC50 result in test [1] (Rac1WT) is “inactive”. Also, the EC50 is 1.65 µM in test [2] (Cdc42ACT) and 1.49 µM in test [2] (Cdc42WT).
For the molecule `NS(=O)(=O)c1ccc(N2N=C(c3ccccc3)CC2c2ccccc2)cc1` (stereo not drawn), the “GTP binding remaining (% of DMSO)” value in test [1] (Rac1ACT), in test [1] (Rac1WT), in test [3] (RhoACT) and in test [3] (RhoWT) was “inactive” throughout. The EC50 in test [2] (Cdc42ACT) is 13.1 µM; in test [2] (Cdc42WT), 13.4 µM.
As for `COc1ccc(C2CC(c3ccsc3)=NN2c2ccc(S(N)(=O)=O)cc2)cc1` (stereo not drawn), the “GTP binding remaining (% of DMSO)” value in test [1] (Rac1ACT), in test [3] (RhoACT) and in test [3] (RhoWT) was “inactive” in each case. For the same molecule, the EC50 entry in test [1] (Rac1WT) was “inactive”. The EC50 is 5.22 µM in test [2] (Cdc42ACT) and 5.19 µM in test [2] (Cdc42WT).
For the molecule `COc1ccc(C2CC(c3ccccc3C)=NN2c2ccc(S(N)(=O)=O)cc2)cc1` (stereo not drawn), the “GTP binding remaining (% of DMSO)” value in test [1] (Rac1ACT), in test [1] (Rac1WT), in test [2] (Cdc42ACT), in test [2] (Cdc42WT), in test [3] (RhoACT) and in test [3] (RhoWT) was “inactive” throughout.
